Results taken from PMC2943923, “Human Integrin α3β1 Regulates TLR2 Recognition of Lipopeptides from Endosomal Compartments” (PLoS ONE, 2010).

Legend:
U937 macrophages [1] = assay: IL-6 secretion (ELISA) of U937 macrophages stimulated with Pam3CSK4; assay type: cell-based, human; details: 100 ng/ml Pam3CSK4, 6 hours; for decrease in Pam3CSK4-induced IL-6 secretion relative to control cells: 100 ng/ml concanamycin A, p = 0.037; for decrease in Pam3CSK4-induced IL-6 secretion relative to control cells / mean secretion of IL-6 by inhibitor-treated cells: 500 µM bafilomycin A1, 1 µM monensin, 5 µM CPZ; for mean secretion of IL-6 by inhibitor-treated cells: inhibitor added 30 minutes before: 100 ng/ml concanamycin A
Experimental: (§1) The human monocyte cell line U937 (American Type Culture Collection) was maintained in RPMI (Mediatech) with 10% FBS and 1% penicillin-streptomycin. For all experiments, U937 monocytes were differentiated at a concentration of 5×10^5 cells per well in 24-well plates with 100 nM phorbol 12-myristate 13-acetate (Sigma) for 48 hours. All experiments were performed under serum-free conditions, unless otherwise noted.
The TLR2/1 triacylated lipid ligand, Pam3CSK4 (Invivogen), biotinylated Pam3CSK4 (Axxora) or Pam3CSK4-rhodamine (Invivogen) were resuspended in endotoxin-free water. Pam3CSK4 was used at a concentration of 100 ng/ml to stimulate macrophages, and Pam3CSK4-biotin and Pam3CSK4-rhodamine were used at indicated concentrations.
Inhibition of endosomal acidification was achieved using inhibitors of V-ATPase, concanamycin A (100 ng/ml) and bafilomycin A1 (500 µM) (Sigma) or the ionophore monensin (1 µM) (Sigma). Clathrin-mediated endocytosis was inhibited with chlorpromazine (CPZ) (5 µM) (Sigma). Concentrations were chosen based on prior studies, [61]. All inhibitors were added 30 minutes prior to stimulation. For CPZ experiments, the media was replaced at the time of stimulation to remove CPZ. […]
Supernatants were collected 6 hours post stimulation. IL-6 and TNF-α were measured using the DuoSet enzyme linked immunoabsorbent assay (ELISA) kit (R&D systems) following the manufacturer's instructions.

U937 macrophages [2] = assay: IL-6 secretion (ELISA) of U937 macrophages stimulated with B. burgdorferi; assay type: cell-based, human; details: for mean secretion of IL-6 by inhibitor-treated cells: B. burgdorferi MOI 10, 6 hours, serum-free, three experiments
Experimental: as §1
Clonal isolates of infectious, low passage B. burgdorferi sensu stricto (strain N40, clone D10E9) were cultured in Barbour-Stoenner-Kelley (BSK II) medium at 37°C as described, and used at multiplicity of infection (MOI) 10∶1.
(§2) Inhibition of endosomal acidification was achieved using inhibitors of V-ATPase, concanamycin A (100 ng/ml) and bafilomycin A1 (500 µM) (Sigma) or the ionophore monensin (1 µM) (Sigma). Clathrin-mediated endocytosis was inhibited with chlorpromazine (CPZ) (5 µM) (Sigma). Concentrations were chosen based on prior studies, [61]. All inhibitors were added 30 minutes prior to stimulation. For CPZ experiments, the media was replaced at the time of stimulation to remove CPZ.
For blocking antibody experiments, U937 macrophages were incubated for 2 hours prior to stimulation with 50 µg/ml of control mouse ascites fluid (NS-1 murine myeloma, Sigma-Aldrich) or anti-integrin α3β1 monoclonal antibody (P1B5, Millipore).
(§3) Supernatants were collected 6 hours post stimulation.

U937 macrophages [3] = assay: IL-6 secretion of U937 macrophages stimulated with TNF-α (inhibitor control); assay type: cell-based, human; details: pre-treatment with inhibitor, stimulation with TNF-α; data not shown
Experimental: as §2, §3

U937 macrophages [4] = assay: TNF-α secretion (ELISA) of U937 macrophages stimulated with Pam3CSK4; assay type: cell-based, human; details: Fig S5A; 100 ng/ml concanamycin A or 1 µM monensin; 100 ng/ml Pam3CSK4, 6 hours, serum-free
Experimental: as §2, §3

U937 macrophages [5] = assay: IFN-α1 transcript (qRT-PCR) in Pam3CSK4-stimulated U937 macrophages; assay type: cell-based, human; details: 100 ng/ml Pam3CSK4, serum-free; for reduction of IFN-α1 transcript levels: 100 ng/ml concanamycin A or 1 µM monensin, 6 and 16 hours, p = 0.037
Experimental: as §2
Cells were collected at 6 hours post infection unless otherwise indicated. RNA was extracted using TRIzol (Invitrogen) following the manufacturer's instructions. RNA was resuspended in water containing RNaseOut (Invitrogen) and treated with DNaseI using the Turbo DNA-free kit (Ambion). cDNA was synthesized using the ImPromII kit (Promega) following the manufacturer's instructions. Quantification of cDNA was performed by quantitative RT-PCR (iCycler, BioRad) using the iQ SYBR Green Supermix (BioRad). Cycling parameters were 95°C for 15 minutes followed by 40 cycles of 95°C for 30 seconds, 60°C for 30 seconds, and 72°C for 30 seconds. Primers used to measure IL-6, TNF-α, and β-actin were published previously, [62]. Human integrin α3 primers, forward: 5′-[…]-3′, reverse 5′-[…]-3′ were generated by Primer Bank, ID# 6006011a1. Human integrin αv primers, forward: 5′-[…]-3′, reverse 5′-[…]-3′ were generated by Primer Bank, ID# 4504763a2. Human integrin α5 primers, forward: 5′-[…]-3′, reverse 5′-[…]-3′ were generated by Primer Bank, ID# 4504751a3. Human integrin α6 primers, forward: 5′-TCGGCACAGCAACCTTGAA-3′, reverse 5′-[…]-3′ were generated by Primer Bank, ID# 30046796a2. Human TLR2 primers, forward: 5′-[…]-3′, reverse 5′- […]-3′. Human TLR4 primers, forward: 5′-[…]-3′, reverse 5′-[…]-3′ were generated by Primer Bank, ID# 19924149a1. Human TLR7 primers, forward: 5′-[…]-3′, reverse 5′-[…]-3′. Human TLR9 primers, forward: 5′-GCGACCAGGCTCCCGAAGG-3′, reverse 5′-[…]-3′. Human IFN-α1 primers, forward: 5′-[…]-3′, reverse: 5′-[…]-3′ were generated by Primer Bank, ID# 13128950a1 [63], [64]. […]

U937 macrophages [6] = assay: IL-6 transcript (qRT-PCR) in Pam3CSK4-stimulated U937 macrophages; assay type: cell-based, human; details: 1 µM monensin; 100 ng/ml Pam3CSK4, 6 hours, serum-free; normalized to β-actin (Fig. S2)
Experimental: as §2
(§4) Cells were collected at 6 hours post infection unless otherwise indicated. RNA was extracted using TRIzol (Invitrogen) following the manufacturer's instructions. RNA was resuspended in water containing RNaseOut (Invitrogen) and treated with DNaseI using the Turbo DNA-free kit (Ambion). cDNA was synthesized using the ImPromII kit (Promega) following the manufacturer's instructions. Quantification of cDNA was performed by quantitative RT-PCR (iCycler, BioRad) using the iQ SYBR Green Supermix (BioRad). Cycling parameters were 95°C for 15 minutes followed by 40 cycles of 95°C for 30 seconds, 60°C for 30 seconds, and 72°C for 30 seconds. Primers used to measure IL-6, TNF-α, and β-actin were published previously, [62]. Human integrin α3 primers, forward: 5′-[…]-3′, reverse 5′-[…]-3′ were generated by Primer Bank, ID# 6006011a1. […]

U937 macrophages [7] = assay: IL-6 transcript (qRT-PCR) in B. burgdorferi-stimulated U937 macrophages; assay type: cell-based, human; details: 1 µM monensin; B. burgdorferi MOI 10, 6 hours, serum-free (Fig. S4)
Experimental: as §2, §4

[8] = tested on: murine bone marrow derived macrophages; assay: IFN-β induction in murine bone marrow derived macrophages; assay type: cell-based; details: data not shown
U937 macrophages [9] = assay: IFN-β transcript (qRT-PCR) in Pam3CSK4-stimulated U937 macrophages; assay type: cell-based, human; details: 100 ng/ml Pam3CSK4, serum-free, 6 hrs or 16 hrs post stimulation
Experimental: Cells were collected at 6 hours post infection unless otherwise indicated. RNA was extracted using TRIzol (Invitrogen) following the manufacturer's instructions. RNA was resuspended in water containing RNaseOut (Invitrogen) and treated with DNaseI using the Turbo DNA-free kit (Ambion). cDNA was synthesized using the ImPromII kit (Promega) following the manufacturer's instructions. Quantification of cDNA was performed by quantitative RT-PCR (iCycler, BioRad) using the iQ SYBR Green Supermix (BioRad). Cycling parameters were 95°C for 15 minutes followed by 40 cycles of 95°C for 30 seconds, 60°C for 30 seconds, and 72°C for 30 seconds. Primers used to measure IL-6, TNF-α, and β-actin were published previously, [62]. Human integrin α3 primers, forward: 5′-[…]-3′, reverse 5′-[…]-3′ were generated by Primer Bank, ID# 6006011a1. Human integrin αv primers, forward: 5′-[…]-3′, reverse 5′-[…]-3′ were generated by Primer Bank, ID# 4504763a2. Human integrin α5 primers, forward: 5′-[…]-3′, reverse 5′-[…]-3′ were generated by Primer Bank, ID# 4504751a3. Human integrin α6 primers, forward: 5′-TCGGCACAGCAACCTTGAA-3′, reverse 5′-[…]-3′ were generated by Primer Bank, ID# 30046796a2. Human TLR2 primers, forward: 5′-[…]-3′, reverse 5′- […]-3′. Human TLR4 primers, forward: 5′-[…]-3′, reverse 5′-[…]-3′ were generated by Primer Bank, ID# 19924149a1. Human TLR7 primers, forward: 5′-[…]-3′, reverse 5′-[…]-3′. […]

[10] = Fig 5, serum-free, three experiments
[11] = 100 ng/ml concanamycin A, 500 µM bafilomycin A1, 1 µM monensin
[12] = Homo sapiens, U-937, 6 h, read-out: inhibition of B. burgdorferi induction of IL-6

Row | Compound | decrease in Pam3CSK4-induced IL-6 secretion relative to control cells (U937 macrophages [1]; serum-free) | mean secretion of IL-6 by inhibitor-treated cells (U937 macrophages [1]; [10]) | mean secretion of IL-6 by inhibitor-treated cells (U937 macrophages [2]; [11]) | change in secretion of IL-6 in response to TNF-α (U937 macrophages [3]) | mean secretion of TNF-α by inhibitor-treated cells (U937 macrophages [4]) | reduction of IFN-α1 transcript levels (U937 macrophages [5]) | also measured
1 | CN(C)CCCN1c2ccccc2Sc2ccc(Cl)cc21 [CPZ, chlorpromazine] | 49% | 340 pg/mL |  |  |  |  | 
2 | CO/C1=C\C(C)=C\[C@@H](C)[C@@H](O)[C@@H](C)C/C(C)=C/C=C/[C@H](OC)[C@@H]([C@@H](C)[C@@H](O)[C@H](C)[C@@]2(O)C[C@@H](O)[C@H](C)[C@@H](C(C)C)O2)OC1=O [bafilomycin A1] | 37% | 430 pg/mL | 680 pg/mL | no significant change |  |  | inhibition at 500 µM (U937 macrophages [2]; [12]): 30%
3 | C/C=C/[C@H]1O[C@@](O)([C@@H](C)[C@H](O)[C@H](C)[C@H]2OC(=O)/C(OC)=C/C(C)=C/[C@@H](C)[C@@H](O)[C@@H](CC)[C@@H](O)[C@H](C)C/C(C)=C/C=C/[C@@H]2OC)C[C@@H](O[C@H]2C[C@@H](O)[C@H](OC(N)=O)[C@@H](C)O2)[C@@H]1C [concanamycin A] | 53% | 320 pg/mL | 437 pg/mL | no significant change | 928 pg/mL | 84% | inhibition of B. burgdorferi induction of IL-6 (U937 macrophages [2]; 100 ng/ml concanamycin A, 500 µM bafilomycin A1, 1 µM monensin, MOI 10, 6 hours, p = 0.037): 56%
4 | CC[C@@]1([C@@H]2O[C@@H]([C@H]3O[C@@](O)(CO)[C@H](C)C[C@@H]3C)C[C@@H]2C)CC[C@H]([C@]2(C)CC[C@]3(C[C@H](O)[C@@H](C)[C@@H]([C@@H](C)[C@@H](OC)[C@H](C)C(=O)O)O3)O2)O1 [monensin] | 38% | 420 pg/mL | 567 pg/mL | decrease in IL-6 secretion | 567 pg/mL | 88% | inhibition at 1 µM (U937 macrophages [2]; [12]): 40%; reduction of IL-6 transcript (U937 macrophages [6]): 32%; reduction of IL-6 transcript (U937 macrophages [7]): 51%
5 | palmitoyl-3-Cys-Ser-(Lys)4 [Pam3CSK4, synthetic TLR2/1 triacylated lipid ligand, prototypical bacterial lipopeptide (Invivogen)] |  |  |  |  |  |  | induction of IFN-β [8]: confirm Pam3CSK4-induced IFN-β; induction of IFN-β (U937 macrophages [9]): did not observe any induction; mean secretion of IL-6 (U937 macrophages [1]; Fig 1A, cells transduced with control shRNA, serum-free, mean of three independent experiments): 350 pg/mL; mean secretion of IL-6 (U937 macrophages [1]; Fig 2A, in the presence of 1% FBS, three experiments): 975 pg/mL; mean secretion of IL-6 (U937 macrophages [1]; Fig 2A, serum-free, three experiments): 1,048 pg/ml; mean secretion of IL-6 (U937 macrophages [1]; Fig 2B, control shRNA cells, 1% FBS): 974 pg/mL; mean secretion of IL-6 (U937 macrophages [1]; Fig 2B, control shRNA cells, serum-free): 1,048 pg/ml; mean secretion of IL-6 (U937 macrophages [1]; Fig 5, control cells (no inhibitor), serum-free, three experiments): 670 pg/mL; induction of IFN-α1 (interferon response) (U937 macrophages [5]): induces an interferon response
